Assay results: patent publication US5180678A, “Uses of substantially pure interleukin-9 receptor” (Ludwig Institute for Cancer Research, priority 1992, dated 1993)

How the values were obtained:
[1] = target: T1, IL-9R (Mus musculus, UniProt Q01114); assay: Competitive binding of radiolabelled rIL-9 to TS1 cells (specificity of IL-9 binding); parameters: a number of different cell types were tested for the presence of the IL-9R molecule; endogenous in cells; conditions: competitor 6.1 × 10^-10 M; labelled rIL-9 6.1×10^-10 M, 10^6 TS1 cells, 3 h 4° C.; no competitor 4083 ± 16
T1 sequence (Q01114 38-468): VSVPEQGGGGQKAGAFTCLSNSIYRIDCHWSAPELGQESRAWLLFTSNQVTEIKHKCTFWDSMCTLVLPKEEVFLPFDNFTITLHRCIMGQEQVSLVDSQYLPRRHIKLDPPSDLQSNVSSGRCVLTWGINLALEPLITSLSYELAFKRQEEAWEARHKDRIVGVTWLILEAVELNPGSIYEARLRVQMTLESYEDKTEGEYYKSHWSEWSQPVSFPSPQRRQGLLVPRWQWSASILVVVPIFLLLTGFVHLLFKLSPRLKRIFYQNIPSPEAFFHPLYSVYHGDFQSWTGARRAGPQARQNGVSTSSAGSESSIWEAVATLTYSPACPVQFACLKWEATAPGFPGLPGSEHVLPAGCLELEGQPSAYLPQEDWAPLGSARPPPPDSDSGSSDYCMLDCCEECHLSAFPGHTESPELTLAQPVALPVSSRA
Method: In order to test whether the radioactive IL-9 would bind to TS1 cells which are mouse cells, which are IL-9 dependent, a competitive assay was carried out. Specifically, rIL-9 was incubated with TS1 cells in 140 ul of DMEM containing BSA (10 mg/ml) and Na3 N (10 mM). In order to determine the level of binding, a 100 fold excess of "cold", i.e., non-radiolabelledIL-9, was also mixed with the material. The rIL-9 was admixed at 6.1×10^-10 M, for three hours at 4° C., with 10^6 TS1 cells. Bound material was separated from free ligand via centrifugation over a layer of dibutyl and dioctyl phthalate (15:I). In addition, the experiments were repeated using various interleukins, interferon-γ ("INF-γ"), tumor necrosis factor ("TNF"), and granulocyte, macrophage colony stimulating factor ("GM-CSF"). All experiments were carried out in triplicate.

[2] = test system: T helper clone TUC7.51; assay: IL-9 induced proliferation, thymidine incorporation; format: cell-based; conditions: resting TUC7.51 cells, saturating IL-9, thymidine incorporation day 3
Method: (§1) The correlation between IL-9 and proliferation of T4 cell lines in response to IL-9 was studied. Resting T cells were collected from two week cultures, and 2×10^6 cells were stimulated by antigen (KLH, 25 ug/ml) in the presence of 70×10^6 & spleen cells for four days. Blasts were isolated by centrifugation and IL-9 binding was determined following incubation with 7.5×10^-10 M labelled rIL-9. Resting cells which had not been restimulated were treated in parallel. Maximal IL-9 induced proliferation was measured by incubation of resting cells in microliter plates (50,000/well), either with or without saturating concentrations of IL-9. Radioactive thymidine incorporation, which was the manner in which proliferation was determined, was measured on day 3.

[3] = test system: T helper clone TUC7.33; assay: as above; format: cell-based; conditions: resting TUC7.33 cells, saturating IL-9, thymidine incorporation day 3
Method: as §1

[4] = test system: T helper clone TUC7.11; assay: as above; format: cell-based; conditions: resting TUC7.11 cells, saturating IL-9, thymidine incorporation day 3
Method: as §1

[5] = test system: T helper clone TUC2.15; assay: as above; format: cell-based; conditions: resting TUC2.15 cells, saturating IL-9, thymidine incorporation day 3
Method: as §1

For “IL-9: lymphokine interleukin-9, T-cell derived growth factor; in Tables II and III the 125I-labelled recombinant form is used”, the “Bound Radioactivity” value [1] was 1181 ± 123 cpm, the “IL-9 induced proliferation Stimulatin Index” value [2] was 23.8 and the “IL-9 induced proliferation Stimulatin Index” value [3] was 0.8. The “IL-9 induced proliferation Stimulatin Index” value [4] was 1.1 and the “IL-9 induced proliferation Stimulatin Index” value [5] was 11.2.
